# Tested on: NCI-H196 complex spheroid viability
# Test: Anticancer human tumor NCI-H196 cell line growth inhibition [LSD1];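 further: spheroids exposed to agents for 7 days before readout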;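 on viability, T/C: 100% = DMSO vehicle control viability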
# Settings: for IC50: curve of first compound; for viability, T/C: stronger effect = lower value
# Summary of the method: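 Complex spheroids of tumor cells with HUVEC and human MSCs, exposed to iadademstat combined with other agents. Each agent tested in half-log steps from near clinical Cmax (else 10 microM top), DMSO ≤0.25%.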
# [1] = second compound 0.1 µM, first compound 0.00949 µM
# [2] = second compound 0.1 µM, first compound 0.03 µM
# [3] = second compound 0.1 µM, first compound 0.0949 µM
# [4] = second compound 0.1 µM, first compound 0.3 µM
# [5] = second compound 0.316 µM, first compound 0.00949 µM
# [6] = second compound 0.316 µM, first compound 0.03 µM
# [7] = second compound 0.316 µM, first compound 0.0949 µM
# [8] = second compound 0.316 µM, first compound 0.3 µM
# [9] = second compound 1 µM, first compound 0.00949 µM
# [10] = second compound 1 µM, first compound 0.03 µM
# [11] = second compound 1 µM, first compound 0.0949 µM
# [12] = second compound 1 µM, first compound 0.3 µM
# [13] = second compound 3.16 µM, first compound 0.00949 µM
# [14] = second compound 3.16 µM, first compound 0.03 µM
# [15] = second compound 3.16 µM, first compound 0.0949 µM
# [16] = second compound 3.16 µM, first compound 0.3 µM
# [17] = second compound 10 µM, first compound 0.00949 µM
# [18] = second compound 10 µM, first compound 0.03 µM
# [19] = second compound 10 µM, first compound 0.0949 µM
# [20] = second compound 10 µM, first compound 0.3 µM
smiles,measurement,setting,value
CCN(c1cc(-c2ccc(CN3CCOCC3)cc2)cc(C(=O)NCc2c(C)cc(C)[nH]c2=O)c1C)C1CCOCC1 + NC1CCC(NC2CC2c2ccccc2)CC1,IC50,second compound 0.1 µM,> 3000 nM
same,IC50,second compound 0.316 µM,> 3000 nM
same,IC50,second compound 1 µM,> 3000 nM
same,IC50,second compound 3.16 µM,> 3000 nM
same,IC50,second compound 10 µM,> 3000 nM
same,"viability, T/C",[1],100%
same,"viability, T/C",[2],95.6%
same,"viability, T/C",[3],93.1%
same,"viability, T/C",[4],103%
same,"viability, T/C","second compound 0.1 µM, first compound 0.949 µM",96.4%
same,"viability, T/C","second compound 0.1 µM, first compound 3 µM",101%
same,"viability, T/C",[5],99.5%
same,"viability, T/C",[6],93.8%
same,"viability, T/C",[7],101%
same,"viability, T/C",[8],100%
same,"viability, T/C","second compound 0.316 µM, first compound 0.949 µM",104%
same,"viability, T/C","second compound 0.316 µM, first compound 3 µM",110%
same,"viability, T/C",[9],92.5%
same,"viability, T/C",[10],93%
same,"viability, T/C",[11],98.7%
same,"viability, T/C",[12],95.2%
same,"viability, T/C","second compound 1 µM, first compound 0.949 µM",99.6%
same,"viability, T/C","second compound 1 µM, first compound 3 µM",103%
same,"viability, T/C",[13],87.8%
same,"viability, T/C",[14],91.4%
same,"viability, T/C",[15],95.3%
same,"viability, T/C",[16],95.6%
same,"viability, T/C","second compound 3.16 µM, first compound 0.949 µM",91.6%
same,"viability, T/C","second compound 3.16 µM, first compound 3 µM",99.9%
same,"viability, T/C",[17],104%
same,"viability, T/C",[18],93.3%
same,"viability, T/C",[19],94.6%
same,"viability, T/C",[20],105%
same,"viability, T/C","second compound 10 µM, first compound 0.949 µM",86.7%
same,"viability, T/C","second compound 10 µM, first compound 3 µM",101%
Nc1ncn(C2CC(O)C(CO)S2)c(=O)n1 (stereo not given) + NC1CCC(NC2CC2c2ccccc2)CC1,IC50,second compound 0.1 µM,> 300 nM
same,IC50,second compound 0.316 µM,> 300 nM
same,IC50,second compound 1 µM,> 300 nM
same,IC50,second compound 3.16 µM,> 300 nM
same,IC50,second compound 10 µM,> 300 nM
same,"viability, T/C","second compound 0.1 µM, first compound 0.000949 µM",112%
same,"viability, T/C","second compound 0.1 µM, first compound 0.003 µM",104%
same,"viability, T/C",[1],121%
same,"viability, T/C",[2],118%
same,"viability, T/C",[3],122%
same,"viability, T/C",[4],118%
same,"viability, T/C","second compound 0.316 µM, first compound 0.000949 µM",103%
same,"viability, T/C","second compound 0.316 µM, first compound 0.003 µM",102%
same,"viability, T/C",[5],108%
same,"viability, T/C",[6],114%
same,"viability, T/C",[7],112%
same,"viability, T/C",[8],127%
same,"viability, T/C","second compound 1 µM, first compound 0.000949 µM",93.7%
same,"viability, T/C","second compound 1 µM, first compound 0.003 µM",105%
same,"viability, T/C",[9],113%
same,"viability, T/C",[10],109%
same,"viability, T/C",[11],109%
same,"viability, T/C",[12],110%
same,"viability, T/C","second compound 3.16 µM, first compound 0.000949 µM",96.4%
same,"viability, T/C","second compound 3.16 µM, first compound 0.003 µM",106%
same,"viability, T/C",[13],105%
same,"viability, T/C",[14],124%
same,"viability, T/C",[15],107%
same,"viability, T/C",[16],108%
same,"viability, T/C","second compound 10 µM, first compound 0.000949 µM",108%
same,"viability, T/C","second compound 10 µM, first compound 0.003 µM",105%
same,"viability, T/C",[17],113%
same,"viability, T/C",[18],118%
same,"viability, T/C",[19],111%
same,"viability, T/C",[20],106%
O=C(C=Cn1cnc(-c2cc(C(F)(F)F)cc(C(F)(F)F)c2)n1)NNc1cnccn1 + NC1CCC(NC2CC2c2ccccc2)CC1,IC50,second compound 0.1 µM,< 3.16 nM
same,IC50,second compound 0.316 µM,< 3.16 nM
same,IC50,second compound 1 µM,< 3.16 nM
same,IC50,second compound 3.16 µM,< 3.16 nM
same,IC50,second compound 10 µM,< 3.16 nM
same,"viability, T/C","second compound 0.1 µM, first compound 0.00316 µM",32.9%
same,"viability, T/C","second compound 0.1 µM, first compound 0.01 µM",27.2%
same,"viability, T/C","second compound 0.1 µM, first compound 0.0316 µM",22.3%
same,"viability, T/C","second compound 0.1 µM, first compound 0.1 µM",15.1%
same,"viability, T/C","second compound 0.1 µM, first compound 0.316 µM",14.4%
same,"viability, T/C","second compound 0.1 µM, first compound 1 µM",9.29%
same,"viability, T/C","second compound 0.316 µM, first compound 0.00316 µM",31.6%
same,"viability, T/C","second compound 0.316 µM, first compound 0.01 µM",25.9%
same,"viability, T/C","second compound 0.316 µM, first compound 0.0316 µM",19.7%
same,"viability, T/C","second compound 0.316 µM, first compound 0.1 µM",14.1%
same,"viability, T/C","second compound 0.316 µM, first compound 0.316 µM",14.5%
same,"viability, T/C","second compound 0.316 µM, first compound 1 µM",10.1%
same,"viability, T/C","second compound 1 µM, first compound 0.00316 µM",38%
same,"viability, T/C","second compound 1 µM, first compound 0.01 µM",25.1%
same,"viability, T/C","second compound 1 µM, first compound 0.0316 µM",22.3%
same,"viability, T/C","second compound 1 µM, first compound 0.1 µM",17.1%
same,"viability, T/C","second compound 1 µM, first compound 0.316 µM",15.7%
same,"viability, T/C","second compound 1 µM, first compound 1 µM",10.4%
same,"viability, T/C","second compound 3.16 µM, first compound 0.00316 µM",30.6%
same,"viability, T/C","second compound 3.16 µM, first compound 0.01 µM",29.2%
same,"viability, T/C","second compound 3.16 µM, first compound 0.0316 µM",21.1%
same,"viability, T/C","second compound 3.16 µM, first compound 0.1 µM",17.1%
same,"viability, T/C","second compound 3.16 µM, first compound 0.316 µM",13.9%
same,"viability, T/C","second compound 3.16 µM, first compound 1 µM",12.9%
same,"viability, T/C","second compound 10 µM, first compound 0.00316 µM",38.2%
same,"viability, T/C","second compound 10 µM, first compound 0.01 µM",25.6%
same,"viability, T/C","second compound 10 µM, first compound 0.0316 µM",16%
same,"viability, T/C","second compound 10 µM, first compound 0.1 µM",19.1%
same,"viability, T/C","second compound 10 µM, first compound 0.316 µM",14.5%
same,"viability, T/C","second compound 10 µM, first compound 1 µM",11.9%

# Source: PubChem BioAssay AID1918958 (Molecular Pharmacology Branch, DTP, NCI, 2023)
